Laboratory results reported in PubChem BioAssay (NCI).
Where “and” joins values, the source holds several entries; their conditions need not be identical. Equal entries are not always repeated.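 Values below derive from 48-hour exposures of cells grown in 96-well plates, with endpoints linearly interpolated between the two concentrations bracketing the appropriate inhibition level. Abbreviation: GI50, concentration required for 50% inhibition of growth. The concentration for full growth arrest is given as TGI.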

What was measured:
Test in all cases: NCI anticancer screen, dose series, 48 h
[1] = test system: ACHN renal
[2] = test system: HCT-15 colon
[3] = test system: NCI-H460 lung
[4] = test system: SK-MEL-2 melanoma
[5] = test system: SF-295 CNS
[6] = test system: UACC-62 melanoma
[7] = test system: HT29 colon
[8] = test system: OVCAR-4 ovarian

Compound	GI50 [1]	TGI [1] [nM]	GI50 [2]	TGI [2]	GI50 [3] [nM]	TGI [3]	GI50 [4] [nM]	TGI [4]	GI50 [5] [nM]	TGI [5]	GI50 [6]	TGI [6]	GI50 [7]	TGI [7] [nM]	GI50 [8]	TGI [8] [nM]
CCN(CC)CCn1c(=O)c2cc(OC)c(OC)cc2c2ccc3cc4c(cc3c21)OCO4	266 nM	12000	1610 nM	10300 nM	76.6	1410 nM	> 100000	> 100000 nM	90.7	2540 nM	163 nM	14800 nM	195 nM	6160	477 nM	19900
C=CCOc1ccc(N)c([N+](=O)[O-])c1		> 100000		> 100000 nM				> 100000 nM		> 100000 nM		> 100000 nM		> 100000		
COc1c(C)c(OC)c(C(=O)CC(C)C)c(OC)c1C		> 100000		> 100000 nM				> 100000 nM		> 100000 nM		> 100000 nM		> 100000		> 100000
Cc1nc2ccccc2c(/C=C/c2ccccc2)c1C(=O)/C=C/c1ccc(C(F)(F)F)cc1	1440 nM	2750	721 nM	3280 nM			1870	3950 nM	1670	3100 nM	1480 nM	2930 nM	632 nM	4460	1650 nM	3200
CN[C@@H](Cc1cccc2ccccc12)C(=O)N[C@@H](CC(C)C)B(O)O		> 100000	17.2 nM	45.9 nM and 406 nM	26.6	105 nM and 55.1 nM	23.7	59.9 nM and 104 nM	23.1	82.8 nM and 15.6 nM	17 nM	34.4 nM and < 15.4 nM		25	23.9 nM	
CC[C@H]1CCC/C=C/[C@@H]2C[C@H](O)C[C@H]2[C@H](O)/C=C/C(=O)O1	44.3 nM	> 100000	44.6 nM		107	> 100000 nM	33.7	198 nM	54.5	> 100000 nM	38.4 nM	> 37700 nM	26.4 nM	405	36.1 nM	
CCOC(=O)c1c(-c2ccc(OC)c(O)c2)c(C#N)c(=S)n(C2OC(COC(C)=O)C(OC(C)=O)C(OC(C)=O)C2OC(C)=O)c1-c1ccccc1 (stereo not given)	36600 nM and > 100000 nM	> 100000	43100 nM and > 100000 nM	> 100000 nM		> 100000 nM				> 100000 nM	17100 nM and > 100000 nM	34100 nM and > 100000 nM	36700 nM and > 100000 nM	> 100000	47200 nM and > 100000 nM	> 100000
CCOC(=O)Nc1ccc2c(c1)C(=O)N(CC)c1ccccc1O2	232 nM	> 100000	74.6 nM	> 100000 nM	116	> 100000 nM	102	> 100000 nM	84.6	790 nM	101 nM	> 100000 nM	79.1 nM	> 39600	237 nM	> 100000
NNc1nc2ccccc2o1		> 100000		> 100000 nM		> 100000 nM		> 100000 nM				> 100000 nM		> 100000		> 100000
CC(C)=Cc1cccc2[nH]c(O)c(N=Nc3ccc(S(N)(=O)=O)cc3)c12	2090 nM	> 25000	4320 nM	> 25000 nM	1320	> 20500 nM	> 25000	> 25000 nM	3400	> 25000 nM	> 25000 nM	> 25000 nM	3360 nM	> 25000	1260 nM	> 25000
O=C1c2cc3c(cc2-c2c1c1ccc(F)cc1c(=O)n2C[C@H](O)[C@H](O)[C@H](O)CO)OCO3			199 nM	724 nM			233	596 nM	62.4	513 nM	40 nM	195 nM	142 nM	397	280 nM	34900
COc1cc2c(cc1O)c(=O)n(CCN(C)C)c1c3cc4c(cc3ncc21)OCO4	< 10 nM	46.4	28.4 nM		< 10	329 nM	136	360 nM	51.7	4020 nM			729 nM	7860	51.1 nM	1740
Cc1ccc2[nH]c(O)c(N=Nc3ccccc3[N+](=O)[O-])c2c1				> 100000 nM		> 100000 nM		> 100000 nM		> 58800 nM		> 100000 nM		> 100000		6180
COc1cc2c(c(OC)c1OC)-c1c(c3ccc([N+](=O)[O-])cc3c(=O)n1CCCBr)C2=O					8530	> 100000 nM	> 100000	> 100000 nM	24200	> 100000 nM	23800 nM	90100 nM	> 100000 nM	> 100000		
CCc1[nH]nc(C(N)=O)c1N=NN(C)C		> 100000		> 100000 nM				> 100000 nM		> 100000 nM		> 100000 nM		> 100000		> 100000
